Results from US7858654B2, “Imidazole-substituted arylamides as P2X3 and P2X2/3 antagonists” (Roche Palo Alto LLC, priority 2007, dated 2010).

Tests used:
[1] = target: T1, rat P2X3 receptor (Rattus norvegicus, UniProt P49654); test: P2X3 FLIPR (Fluorometric Imaging Plate Reader) assay; type: cell-based; conditions: transfected CHO-K1 cells; agonist α,β-meATP 1 μM; Fluo-3 calcium fluorescence; read-out: pIC50 for the P2X3 receptor (converted)
T1 construct: expressed in transfected cells; host or cells: CHO-K1
T1 sequence (P49654 1-397): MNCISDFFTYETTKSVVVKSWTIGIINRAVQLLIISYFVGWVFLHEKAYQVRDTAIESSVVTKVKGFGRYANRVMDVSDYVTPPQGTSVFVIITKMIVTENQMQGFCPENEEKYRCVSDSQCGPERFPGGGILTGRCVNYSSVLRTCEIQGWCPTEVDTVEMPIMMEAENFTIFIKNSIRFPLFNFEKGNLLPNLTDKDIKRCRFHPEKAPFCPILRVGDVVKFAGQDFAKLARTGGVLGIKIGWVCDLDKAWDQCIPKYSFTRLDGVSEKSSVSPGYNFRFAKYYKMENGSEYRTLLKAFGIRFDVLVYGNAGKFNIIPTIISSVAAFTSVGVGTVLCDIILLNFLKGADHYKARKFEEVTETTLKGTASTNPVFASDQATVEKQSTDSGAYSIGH
Protocol: (§1) CHO-K1 cells were transfected with cloned rat P2X3 or human P2X2/3 receptor subunits and passaged in flasks. 18-24 hours before the FLIPR experiment, cells were released from their flasks, centrifuged, and resuspended in nutrient medium at 2.5×10^5 cells/ml. The cells were aliquoted into black-walled 96-well plates at a density of 50,000 cells/well and incubated overnight in 5% CO2 at 37° C. On the day of the experiment, cells were washed in FLIPR buffer (calcium- and magnesium-free Hank's balanced salt solution, 10 mM HEPES, 2 mM CaCl2, 2.5 mM probenecid; FB). Each well received 100 μl FB and 100 μl of the fluorescent dye Fluo-3 AM [2 μM final conc.]. […]
(§2) Test compounds (dissolved in DMSO at 10 mM and serially diluted with FB) or vehicle were added to each well (25 μl of a 4× solution) and allowed to equilibrate for 20 minutes at room temperature. The plates were then placed in the FLIPR and a baseline fluorescence measurement (excitation at 488 nm and emission at 510-570 nm) was obtained for 10 seconds before a 100 μl/well agonist or vehicle addition. […] Fluorescence was measured for an additional 2 minutes at 1 second intervals after agonist addition. A final addition of ionomycin (5 μM, final concentration) was made to each well of the FLIPR test plate to establish cell viability and maximum fluorescence of dye-bound cytosolic calcium. […]

[2] = target: T2, human P2X2/3 receptor (Homo sapiens, UniProt P56373+Q9UBL9); test: P2X2/3 FLIPR (Fluorometric Imaging Plate Reader) assay; type: cell-based; conditions: transfected CHO-K1 cells; agonist α,β-meATP 5 μM; Fluo-3 calcium fluorescence; read-out: pKi for the P2X2/3 receptor (converted)
T2 construct: expressed in transfected cells; host or cells: CHO-K1
T2 sequence (Q9UBL9 1-471): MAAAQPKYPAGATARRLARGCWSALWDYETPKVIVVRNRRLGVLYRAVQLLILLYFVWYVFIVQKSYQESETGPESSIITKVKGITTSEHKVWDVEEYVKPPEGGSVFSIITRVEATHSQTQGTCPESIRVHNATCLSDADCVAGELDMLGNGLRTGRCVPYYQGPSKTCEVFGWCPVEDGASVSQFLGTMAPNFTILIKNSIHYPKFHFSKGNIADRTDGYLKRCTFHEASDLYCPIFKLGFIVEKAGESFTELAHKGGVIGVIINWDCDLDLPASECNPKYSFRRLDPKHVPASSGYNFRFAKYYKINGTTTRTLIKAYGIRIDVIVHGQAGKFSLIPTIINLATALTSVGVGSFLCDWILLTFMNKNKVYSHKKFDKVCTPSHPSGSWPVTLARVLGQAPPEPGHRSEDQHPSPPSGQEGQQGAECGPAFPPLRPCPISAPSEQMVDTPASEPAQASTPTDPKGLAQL
T2 sequence (P56373 1-397): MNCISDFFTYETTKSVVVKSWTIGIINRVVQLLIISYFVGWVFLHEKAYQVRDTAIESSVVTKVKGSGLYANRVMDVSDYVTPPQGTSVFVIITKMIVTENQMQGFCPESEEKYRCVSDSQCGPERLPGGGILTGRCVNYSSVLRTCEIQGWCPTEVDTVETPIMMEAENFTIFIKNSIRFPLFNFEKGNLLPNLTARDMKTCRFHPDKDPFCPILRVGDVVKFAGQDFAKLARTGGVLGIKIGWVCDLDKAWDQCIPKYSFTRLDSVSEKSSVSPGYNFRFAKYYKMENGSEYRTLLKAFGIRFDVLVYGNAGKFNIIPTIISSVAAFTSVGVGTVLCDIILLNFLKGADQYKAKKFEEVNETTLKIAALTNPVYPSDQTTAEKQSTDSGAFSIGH
Protocol: as §1, §2

How did the IC50 [1] turn out when CCc1nccn1-c1cc(C(=O)NCc2cnc(C)cn2)cc(-c2ccc(C)cn2)c1 [Compound 29, 3-(2-Ethyl-imidazol-1-yl)-N-(5-methyl-pyrazrn-2-ylmethyl)-5-(5-methyl-pyridin-2-yl)-benzamide] was run?
Its IC50 is about 0.00282 µM.

Cc1ccc(-c2cc(C(=O)NC(C)c3cnccn3)cc(-n3ccnc3C(C)C)c2)cc1 (centres unmarked) [Compound 27, 5-(2-Isopropyl-imidazol-1-yl)-4′-methyl-biphenyl-3-carboxylic acid (1-pyrazin-2-yl-ethyl)-amide] was tested. Which Ki [2] did it give?
Its Ki is about 0.0468 µM.
